Test results published in patent US20240317721A1, “PYRAZOLYL DERIVATIVES AS INHIBITORS OF THE KRAS MUTANT PROTEIN” (NOVARTIS AG, priority 2021, published 2024).

What follows are compounds tested against KRasG12C (M1-K169, biotinylated on the N-terminus) (Homo sapiens (Human), UniProt P01116, G12C) (assay: Covalent competition assay: scintillation proximity assay (SPA) quantifying covalent modification of KRASG12C). Conditions: competition with radiolabeled covalent probe (Compound B/Compound A), 2 hours incubation, 10 nM KRasG12C.
Assay type: binding
In short: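 Test compounds compete with a radiolabeled covalent probe for modification of N-terminally biotinylated KRasG12C(M1-K169):GDP, final 10 nM protein, 25 nM radio-ligand, 475 nM unlabelled ligand, 2 h with agitation in 20 mM Tris-HCl pH 7.5, 150 mM NaCl, 0.1 mM MgCl2, 0.01% Tween-20.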

Row | SMILES | IC50 [nM]
1 | C=CC(=O)N1CC2(CC(n3nc(N4CCC(CN5CCS(=O)(=O)CC5)CC4(C)C)c(-c4c(Cl)c(Cl)cc5[nH]ncc45)c3C)C2)C1 (single isomer, unassigned) [Example 235a, 1-(6-(4-(5,6-dichloro-1H-indazol-4-yl)-3-(4-((1,1-dioxidothiomorpholino)methyl)-2,2-dimethylpiperidin-1-yl)-5-methyl-1H-pyrazol-1-yl)-2-azaspiro[3.3]heptan-2-yl)prop-2-en-1-one] | 932
2 | C=CC(=O)N1CC2(CC(n3nc(N4CC[C@@H](CN(C5COC5)C5COC5)CC4(C)C)c(-c4c(Cl)c(Cl)cc5[nH]ncc45)c3C)C2)C1 (single isomer, unassigned) [Example 282a] | 1500
3 | C=CC(=O)N1CC2(CC(n3nc(N4CCN(C5CCOCC5)C[C@@]4(C)C(F)F)c(-c4c(Cl)c(C)cc5[nH]ncc45)c3C)C2)C1 (single isomer, unassigned) [Example 146b] | 31
4 | C=CC(=O)N1CC2(CC(n3nc(N4CCS(=O)(=O)CC4(C)C)c(-c4c(Cl)c(C)cc5[nH]ncc45)c3C)C2)C1 (single isomer, unassigned) [Example 82a, 1-(6-(4-(5-chloro-6-methyl-1H-indazol-4-yl)-3-(3,3-dimethyl-1,1-dioxidothiomorpholino)-5-methyl-1H-pyrazol-1-yl)-2-azaspiro[3.3]heptan-2-yl)prop-2-en-1-one] | 50000
5 | C=CC(=O)N1CC2(CC(n3nc(N4CC[C@@H](CN5CCN(C)[C@H](CO)C5)CC4(C)C)c(-c4c(Cl)c(Cl)cc5[nH]ncc45)c3C)C2)C1 (single isomer, unassigned) [Example 270b] | 5
6 | C=CC(=O)N1CC2(CC(n3nc(N4CC[C@H](CN5CCOCC5)CC4(C)C)c(-c4c(Cl)c(Cl)cc5[nH]ncc45)c3C)C2)C1 (single isomer, unassigned) [Example 214a] | 290
7 | C=CC(=O)N1CC2(CC(n3nc(N4CC[C@@H](CN5CCN(C6COC6)CC5)CC4(C)C)c(-c4c(C)c(Cl)cc5[nH]ncc45)c3C)C2)C1 (single isomer, unassigned) [Example 244b] | 6
8 | C=CC(=O)N1C[C@]2(C[C@H](n3nc(N4CC[C@@H](CN5CCN(C6COC6)CC5)CC4(C)C)c(-c4c(Cl)c(Cl)cc5[nH]ncc45)c3C)C2)[C@H]1C (single isomer, unassigned) [Example 201a] | 4300
9 | C=CC(=O)N1CC2(CC(n3nc(N4CCN(C5COC5)CC45CCC5)c(-c4c(Cl)c(C)cc5[nH]nc(N)c45)c3C)C2)C1 (single isomer, unassigned) [Example 114b, 1-(6-(4-(3-amino-5-chloro-6-methyl-1H-indazol-4-yl)-5-methyl-3-(8-(oxetan-3-yl)-5,8-diazaspiro[3.5]nonan-5-yl)-1H-pyrazol-1-yl)-2-azaspiro[3.3]heptan-2-yl)prop-2-en-1-one] | 337
10 | C=CC(=O)N1CC2(CC(n3nc(N4CCN(C5COC5)CC4(C)C)c(-c4c(Cl)c(Cl)cc5[nH]ncc45)c3C)C2)C1 (single isomer, unassigned) [Example 73a, 1-(6-(4-(5,6-dichloro-1H-indazol-4-yl)-3-(2,2-dimethyl-4-(oxetan-3-yl)piperazin-1-yl)-5-methyl-1H-pyrazol-1-yl)-2-azaspiro[3.3]heptan-2-yl)prop-2-en-1-one] | > 5000
11 | C=CC(=O)N1CC2(CC(n3nc(N4CC[C@@H](CN5CCOC6(COC6)C5)CC4(C)C)c(-c4c(Cl)c(C)cc5[nH]ncc45)c3C)C2)C1 (single isomer, unassigned) [Example 299a] | 793
12 | C=CC(=O)N1CC2(CC(n3nc(N4CCC(n5ccnc5)CC4(C)C)c(-c4c(Cl)c(C)cc5[nH]ncc45)c3C)C2)C1 (single isomer, unassigned) [Example 45b, 1-(6-(3-(4-(1H-imidazol-1-yl)-2,2-dimethylpiperidin-1-yl)-4-(5-chloro-6-methyl-1H-indazol-4-yl)-5-methyl-1H-pyrazol-1-yl)-2-azaspiro[3.3]heptan-2-yl)prop-2-en-1-one] | 1500
13 | C=CC(=O)N1CC2(CC(n3nc(N4CC[C@@H](CN(C)S(=O)(=O)N5CCN(C)CC5)CC4(C)C)c(-c4c(Cl)c(Cl)cc5[nH]ncc45)c3C)C2)C1 (single isomer, unassigned) [Example 304a] | > 5000
14 | C=CC(=O)N1CC2(CC(n3nc(N4CC[C@@H](CN5CCN(C6COC6)C6COCC65)CC4(C)C)c(-c4c(Cl)c(Cl)cc5[nH]ncc45)c3C)C2)C1 (single isomer, unassigned) [Example 281b, 1-(6-(4-(5,6-dichloro-1H-indazol-4-yl)-3-((R)-2,2-dimethyl-4-(((4aS*,7aR*)-4-(oxetan-3-yl)hexahydrofuro[3,4-b]pyrazin-1(2H)-yl)methyl)piperidin-1-yl)-5-methyl-1H-pyrazol-1-yl)-2-azaspiro[3.3]heptan-2-yl)prop-2-en-1-one] | < 5
15 | C=CC(=O)N1CC2(CC(n3nc(N4C5CCC4COC5)c(-c4c(Cl)c(C)cc5[nH]ncc45)c3C)C2)C1 (single isomer, unassigned) [Example 112b] | 171
16 | C=CC(=O)N1CC2(CC(n3nc(N4CCC(N(C)C(=O)COC)CC4(C)C)c(-c4c(Cl)c(C)cc5[nH]ncc45)c3C)C2)C1 (single isomer, unassigned) [Example 97b, N-(1-(1-(2-acryloyl-2-azaspiro[3.3]heptan-6-yl)-4-(5-chloro-6-methyl-1H-indazol-4-yl)-5-methyl-1H-pyrazol-3-yl)-2,2-dimethylpiperidin-4-yl)-2-methoxy-N-methylacetamide] | 1700
17 | C=CC(=O)N1CC2(CC(n3nc(N4CCN(C[C@@H]5COCCO5)C[C@]4(C)COC)c(-c4c(Cl)c(Cl)cc5[nH]ncc45)c3C)C2)C1 (single isomer, unassigned) [Example 182a] | 1400
18 | C=CC(=O)N1CC2(CC(n3nc(N4CCC(N5C[C@H]6C[C@@H]5CN6S(C)(=O)=O)CC4(C)C)c(-c4c(Cl)c(Cl)cc5[nH]ncc45)c3C)C2)C1 (single isomer, unassigned) [Example 212a] | 358
19 | C=CC(=O)N1CC2(CC(n3nc(N4CCN(C[C@@H]5COCCO5)C[C@]4(C)CCOC)c(-c4c(Cl)c(C)cc5[nH]ncc45)c3C)C2)C1 (single isomer, unassigned) [Example 85b] | 8
20 | C=CC(=O)N1CC2(CC(n3nc(N4CCC(CN5CCOCC5)C4(C)C)c(-c4c(Cl)c(Cl)cc5[nH]ncc45)c3C)C2)C1 (single isomer, unassigned) [Example 219a, 1-(6-(4-(5,6-dichloro-1H-indazol-4-yl)-3-(2,2-dimethyl-3-(morpholinomethyl)pyrrolidin-1-yl)-5-methyl-1H-pyrazol-1-yl)-2-azaspiro[3.3]heptan-2-yl)prop-2-en-1-one] | 1600

Continued, values first:

Row | IC50 [nM] | SMILES
21 | 27 | C=CC(=O)N1CC2(CC(n3nc(N4CCN(CCO)CC45CCC5)c(-c4c(Cl)c(C)cc5[nH]ncc45)c3C)C2)C1 (single isomer, unassigned) [Example 162b, 1-(6-(4-(5-chloro-6-methyl-1H-indazol-4-yl)-3-(8-(2-hydroxyethyl)-5,8-diazaspiro[3.5]nonan-5-yl)-5-methyl-1H-pyrazol-1-yl)-2-azaspiro[3.3]heptan-2-yl)prop-2-en-1-one]
22 | 8 | C=CC(=O)N1CC2(CC(n3nc(N4CCN(C[C@@H]5COCCO5)C[C@]4(C)COC)c(-c4c(Cl)c(C)cc5[nH]ncc45)c3C)C2)C1 (single isomer, unassigned) [Example 181b]
23 | 1300 | C=CC(=O)N1CC2(CC(n3nc(N4CCC(C)(O)CC4(C)C)c(-c4c(Cl)c(C)cc5[nH]ncc45)c3C)C2)C1 (single isomer, unassigned) [Example 28b, 1-(6-(4-(5-chloro-6-methyl-1H-indazol-4-yl)-3-(4-hydroxy-2,2,4-trimethylpiperidin-1-yl)-5-methyl-1H-pyrazol-1-yl)-2-azaspiro[3.3]heptan-2-yl)prop-2-en-1-one]
24 | > 50000 | C=CC(=O)N1CC2(CC(n3nc(N4CCN(C5COC5)CC4(C)C)c(-c4c(Cl)c(C)cc5[nH]ncc45)c3C)C2)C1 (single isomer, unassigned) [Example 67a, 1-(6-(4-(5-chloro-6-methyl-1H-indazol-4-yl)-3-(2,2-dimethyl-4-(oxetan-3-yl)piperazin-1-yl)-5-methyl-1H-pyrazol-1-yl)-2-azaspiro[3.3]heptan-2-yl)prop-2-en-1-one]
25 | > 5000 | C=CC(=O)N1CC2(CC(n3nc(N4CCN(C5CCCOC5)C[C@]4(C)CC)c(-c4c(Cl)c(C)cc5[nH]ncc45)c3C)C2)C1 (single isomer, unassigned) [Example 157a]
26 | 467 | C=CC(=O)N1CC2(CC(n3nc(N4CCCC4(C)C)c(-c4c(Cl)c(C)cc5[nH]ncc45)c3C)C2)C1 (single isomer, unassigned) [Example 88b, 1-(6-(4-(5-chloro-6-methyl-1H-indazol-4-yl)-3-(2,2-dimethylpyrrolidin-1-yl)-5-methyl-1H-pyrazol-1-yl)-2-azaspiro[3.3]heptan-2-yl)prop-2-en-1-one]
27 | > 5000 | C=CC(=O)N1CC2(CC(n3nc(N4CCCCC4(C)C)c(-c4c(Cl)c(C)cc5[nH]ncc45)c3C)C2)C1 (single isomer, unassigned) [Example 103a, 1-(6-(4-(5-chloro-6-methyl-1H-indazol-4-yl)-3-(2,2-dimethylpiperidin-1-yl)-5-methyl-1H-pyrazol-1-yl)-2-azaspiro[3.3]heptan-2-yl)prop-2-en-1-one]
28 | > 5000 | C=CC(=O)N1CC2(CC(n3nc(N4CCN(C5COC5)C[C@@]4(C)COC)c(-c4c(Cl)c(C)cc5[nH]ncc45)c3C)C2)C1 (single isomer, unassigned) [Example 148a]
29 | 204 | C=CC(=O)N1CC2(CC(n3nc(N4CCN(C5COC5)CC45CCOC5)c(-c4c(Cl)c(C)cc5[nH]ncc45)c3C)C2)C1 (single isomer, unassigned) [Example 142a, 1-(6-(4-(5-chloro-6-methyl-1H-indazol-4-yl)-5-methyl-3-(9-(oxetan-3-yl)-2-oxa-6,9-diazaspiro[4.5]decan-6-yl)-1H-pyrazol-1-yl)-2-azaspiro[3.3]heptan-2-yl)prop-2-en-1-one]
